Data taken from EP0334369B1, “Antiarteriosclerotic agent” (DAIICHI PHARMACEUTICAL CO., LTD., priority 1988, dated 1989).
“And” between values parts separate entries of the source, which are not always exact repeats. Identical values can stand only once. Counter-ions that a name gives are not always drawn.

System: Vascular smooth muscle cells (VSMC)
Assay: Determination of DT (time required for doubling the number of cells) of vascular smooth muscle culture cells
Assay type: cell-based
Conditions: Treated Group; VSMC from aorta of SHR, 48-hour cultivation with Compound A; concentration not given; P < 0.02 vs. control group by Student's t-test; hydrate
Procedure: Effects on Proliferation of Vascular Smooth Muscle Culture Cells Vascular smooth muscle cells (hereinafter referred to as VSMC) were separated from the aorta of seven 7-week-old male SHR and cultured according to the explant method [cf. Ross, R.J. Cell Biol., Vol. 50, 172 (1971)]. Culture cells of passage Nos. 4 to 10 were used for testing. The proliferation ability of VSMC was evaluated in terms of time required for doubling the number of the cells (hereinafter referred to as DT) and ³H-TU according to the following test methods. 1) Determination of DT: VSMC (about 5 x 10⁴ cells) were cultured on a plate for 24 hours. Compound A was added to the culture, and cultivation was continued for an additional period of 48 hours. The number of cells before the addition of Compound A and after the 48-hour cultivation were counted by means of a light microscope, and DT was obtained therefrom by the equation: [formula] wherein t₁ is the time at which the number of cells before addition of Compound A is counted; t₂ is the time at which the number of cells after addition of Compound A is counted; N₁ is the number of cells at t₁; and N₂ is the number of cells at t₂.

O=C(O)c1ccc2c(c1)CCC(Cn1ccnc1)C2 (stereo not shown) [Compound A, 6-(1-Imidazolylmethyl)-5,6,7,8-tetrahydro-2-naphthalenecarboxylic acid hydrochloride 1/2 hydrate]
DT: 26.16 h and 27.81 h and 26.59 h and 28.94 h and 21.66 h and 24.41 h
